Measurements as given in patent EP1025114B1, “3'-N-MODIFIED 6-O-SUBSTITUTED ERYTHROMYCIN KETOLIDE DERIVATIVES HAVING ANTIBACTERIAL ACTIVITY” (priority 1997, dated 1999).

Assays:
Assay in all cases: In vitro antibacterial activity, agar dilution MIC
Format in all cases: cell-based
[1] = system: Escherichia coli SS; settings: Escherichia coli SS (organism code RR); BHI agar, 35-37 °C, 20 to 24 hours; unit assumed
Procedure, shortened: (§1)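 BHI agar dilution; 12 successive concentrations; Steers replicator inoculum 1:100, or 1:10 for slow-growing strains (e.g. Streptococcus). Plates inspected visually; MIC = lowest drug level with no growth, faint haze or sparse colonies vs compound-free control. Same-class reference antibiotic run each test.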

[2] = system: Streptococcus pyogenes 930; settings: Streptococcus pyogenes 930 (organism code MM); BHI agar, 35-37 °C, 20 to 24 hours; unit assumed
Procedure, shortened: as §1

[3] = system: Staphylococcus aureus NCTC10649M; settings: Staphylococcus aureus NCTC10649M (organism code EE); BHI agar, 35-37 °C, 20 to 24 hours; unit assumed
Procedure, shortened: as §1

[4] = system: Streptococcus Pheumoniae 5649; settings: Streptococcus Pheumoniae 5649 (organism code ZZA); BHI agar, 35-37 °C, 20 to 24 hours; unit assumed
Procedure, shortened: as §1

[5] = system: Haemophilis Influenzae DILL AMP R; settings: Haemophilis Influenzae DILL AMP R (organism code WW); BHI agar, 35-37 °C, 20 to 24 hours; unit assumed
Procedure, shortened: as §1

[6] = system: Staphylococcus epidermidis 3519; settings: Staphylococcus epidermidis 3519 (organism code HH); BHI agar, 35-37 °C, 20 to 24 hours; unit assumed
Procedure, shortened: as §1

[7] = system: Staphylococcus aureus ATCC 6538P; settings: Staphylococcus aureus ATCC 6538P (organism code AA); BHI agar, 35-37 °C, 20 to 24 hours; unit assumed
Procedure, shortened: as §1

[8] = system: Staphylococcus aureus A-5278; settings: Staphylococcus aureus A-5278 (organism code CC); BHI agar, 35-37 °C, 20 to 24 hours; unit assumed
Procedure, shortened: as §1

[9] = system: Staphylococcus aureus A5177; settings: Staphylococcus aureus A5177 (organism code BB); BHI agar, 35-37 °C, 20 to 24 hours; unit assumed
Procedure, shortened: as §1

[10] = system: Micrococcus luteus ATCC 9341; settings: Micrococcus luteus ATCC 9341 (organism code OO); BHI agar, 35-37 °C, 20 to 24 hours; unit assumed
Procedure, shortened: as §1

[11] = system: Mycobacterium smegmatis ATCC 114; settings: Mycobacterium smegmatis ATCC 114 (organism code UU); BHI agar, 35-37 °C, 20 to 24 hours; unit assumed
Procedure, shortened: as §1

[12] = system: Streptococcus pyogenes PIU 2548; settings: Streptococcus pyogenes PIU 2548 (organism code NN); BHI agar, 35-37 °C, 20 to 24 hours; unit assumed
Procedure, shortened: as §1

[13] = system: Escherichia coli DC-2; settings: Escherichia coli DC-2 (organism code SS); BHI agar, 35-37 °C, 20 to 24 hours; unit assumed
Procedure, shortened: as §1

[14] = system: Enterococcus faecium ATCC 8043; settings: Enterococcus faecium ATCC 8043 (organism code II); BHI agar, 35-37 °C, 20 to 24 hours; unit assumed
Procedure, shortened: as §1

[15] = system: Streptococcus Pheumoniae 5979; settings: Streptococcus Pheumoniae 5979 (organism code ZZ); BHI agar, 35-37 °C, 20 to 24 hours; unit assumed
Procedure, shortened: as §1

[16] = system: Staphylococcus aureus 1775; settings: Staphylococcus aureus 1775 (organism code GG); BHI agar, 35-37 °C, 20 to 24 hours; unit assumed
Procedure, shortened: as §1

[17] = system: Staphylococcus aureus CMX 553; settings: Staphylococcus aureus CMX 553 (organism code FF); BHI agar, 35-37 °C, 20 to 24 hours; unit assumed
Procedure, shortened: as §1

[18] = system: Candida albicans CCH 442; settings: Candida albicans CCH 442 (organism code TT); BHI agar, 35-37 °C, 20 to 24 hours; unit assumed
Procedure, shortened: as §1

[19] = system: Micrococcus luteus ATCC 4698; settings: Micrococcus luteus ATCC 4698 (organism code PP); BHI agar, 35-37 °C, 20 to 24 hours; unit assumed
Procedure, shortened: as §1

[20] = system: Streptococcus Pheumoniae GYR 1171; settings: Streptococcus Pheumoniae GYR 1171 (organism code YY); BHI agar, 35-37 °C, 20 to 24 hours; unit assumed
Procedure, shortened: as §1

[21] = system: Escherichia coli JUHL; settings: Escherichia coli JUHL (organism code QQ); BHI agar, 35-37 °C, 20 to 24 hours; unit assumed
Procedure, shortened: as §1

[22] = system: Streptococcus bovis A-5169; settings: Streptococcus bovis A-5169 (organism code JJ); BHI agar, 35-37 °C, 20 to 24 hours; unit assumed
Procedure, shortened: as §1

[23] = system: Streptococcus agalactiae CMX 508; settings: Streptococcus agalactiae CMX 508 (organism code KK); BHI agar, 35-37 °C, 20 to 24 hours; unit assumed
Procedure, shortened: as §1

[24] = system: Streptococcus pyogenes EES61; settings: Streptococcus pyogenes EES61 (organism code LL); BHI agar, 35-37 °C, 20 to 24 hours; unit assumed
Procedure, shortened: as §1

[25] = system: Staphylococcus aureus CMX 642A; settings: Staphylococcus aureus CMX 642A (organism code DD); BHI agar, 35-37 °C, 20 to 24 hours; unit assumed
Procedure, shortened: as §1

[26] = system: Nocardia Asteroides ATCC9970; settings: Nocardia Asteroides ATCC9970 (organism code VV); BHI agar, 35-37 °C, 20 to 24 hours; unit assumed
Procedure, shortened: as §1

[27] = system: Streptococcus Pheumoniae ATCC6303; settings: Streptococcus Pheumoniae ATCC6303 (organism code XX); BHI agar, 35-37 °C, 20 to 24 hours; unit assumed
Procedure, shortened: as §1

| Structure (SMILES) | MIC [1] [µg/mL] | MIC [2] [µg/mL] | MIC [3] [µg/mL] | MIC [4] [µg/mL] | MIC [5] [µg/mL] | MIC [6] [µg/mL] | MIC [7] [µg/mL] | MIC [8] [µg/mL] | MIC [9] [µg/mL] | MIC [10] [µg/mL] | MIC [11] [µg/mL] | MIC [12] [µg/mL] | MIC [13] [µg/mL] | MIC [14] [µg/mL] | MIC [15] [µg/mL] | MIC [16] [µg/mL] | MIC [17] [µg/mL] | MIC [18] [µg/mL] | MIC [19] [µg/mL] | MIC [20] [µg/mL] | other results |
| --- | --- | --- | --- | --- | --- | --- | --- | --- | --- | --- | --- | --- | --- | --- | --- | --- | --- | --- | --- | --- | --- |
| CCCN(C)[C@H]1C[C@@H](C)O[C@@H](O[C@@H]2[C@@H](C)C(=O)[C@@H](C)C(=O)O[C@H](CC)[C@@]3(C)OC(=O)N[C@@H]3[C@@H](C)C(=O)[C@H](C)C[C@@]2(C)OCC=Cc2cnc3ccccc3c2)[C@@H]1O [Example 16, Compound of Formula (II); R is -CH2CH=CH-(3-quinolyl), R^p is H, W is absent, R^w is H, R^1 is CH2CH2CH3, R^2 is CH3] | 0.2 | 12.5 | 0.39 | 0.5 | 8 | 0.39 | 0.39 | > 100 | 0.39 | 0.02 | 1.56 | 0.1 | > 100 | 0.05 | 128 | > 100 | 0.39 | > 100 | 0.39 | 0.03 | MIC [21]: > 100 µg/mL; MIC [22]: 0.01 µg/mL; MIC [23]: 0.01 µg/mL; MIC [24]: 0.01 µg/mL; MIC [25]: 0.39 µg/mL; MIC [26]: 0.1 µg/mL; MIC [27]: 0.03 µg/mL |
| CC[C@H]1OC(=O)[C@H](C)C(=O)[C@H](C)[C@@H](O[C@@H]2O[C@H](C)C[C@H](N(C)CC=Cc3ccccc3)[C@H]2O)[C@](C)(OCC=Cc2cnc3ccccc3c2)C[C@@H](C)C(=O)[C@H](C)[C@H]2NC(=O)O[C@@]21C [Example 17, Compound of Formula (II); R is -CH2CH=CH-(3-quinolyl), R^p is H, W is absent, R^w is H, R^1 is CH2CH=CHC6H5, R^2 is CH3] | 1.56 | 12.5 | 0.78 | 0.25 | 8 | 0.39 | 0.39 | > 100 | 0.39 | 0.05 | 0.39 | 0.39 | > 100 | 0.1 | 16 | > 100 | 0.39 | > 100 | 0.39 | ≤ 0.015 | MIC [21]: > 100 µg/mL; MIC [22]: 0.05 µg/mL; MIC [23]: 0.05 µg/mL; MIC [24]: 0.2 µg/mL; MIC [25]: 0.39 µg/mL; MIC [26]: 0.2 µg/mL; MIC [27]: ≤ 0.015 µg/mL |
| C=C(CN(C)[C@H]1C[C@@H](C)O[C@@H](O[C@@H]2[C@@H](C)C(=O)[C@@H](C)C(=O)O[C@H](CC)[C@@]3(C)OC(=O)N[C@@H]3[C@@H](C)C(=O)[C@H](C)C[C@@]2(C)OCC=Cc2cnc3ccccc3c2)[C@@H]1O)C(=O)OC [Example 18, Compound of Formula (II); R is -CH2CH=CH-(3-quinolyl), R^p is H, W is absent, R^w is H, R^1 is CH2C(=CH2)C(O)OCH3, R^2 is CH3] | 0.78 | 25 | 0.39 | 0.5 | 16 | 0.39 | 0.39 | > 100 | 0.39 | 0.02 | 6.2 | 0.39 | > 100 | 0.1 | 128 | > 100 | 0.39 | > 100 | 0.39 | ≤ 0.004 | MIC [21]: > 100 µg/mL; MIC [22]: 0.02 µg/mL; MIC [23]: 0.02 µg/mL; MIC [24]: 0.05 µg/mL; MIC [25]: 0.39 µg/mL; MIC [26]: 0.2 µg/mL; MIC [27]: ≤ 0.004 µg/mL |
